Data: patent US7846959B2, “Raf modulators and methods of use” (Exelixis, Inc., priority 2004, dated 2010)

Columns and labels:
c-Raf = c-Raf (Homo sapiens, UniProt P04049); test: Luciferase-coupled chemiluminescence kinase assay (ATP consumption), c-Raf; assay type: biochemical; settings: read-out: cRaf-1 IC50
Procedure, shortened: (§1)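 ATP depletion, limited to 25-60%, read by luciferase-luciferin chemiluminescence gives IC50 values. Before the 3 hr ambient-temperature kinase reaction with ATP, compound and […] enzyme were preincubated 30 minutes at room temperature in Tris pH 7.5 buffer with MgCl2, TX-100 and DTT.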

B-Raf = B-Raf (Homo sapiens, UniProt P15056); test: Luciferase-coupled chemiluminescence kinase assay (ATP consumption), B-Raf; assay type: biochemical; settings: read-out: bRaf IC50
Procedure, shortened: as §1

Chain of B-Raf (P15056 whole entry): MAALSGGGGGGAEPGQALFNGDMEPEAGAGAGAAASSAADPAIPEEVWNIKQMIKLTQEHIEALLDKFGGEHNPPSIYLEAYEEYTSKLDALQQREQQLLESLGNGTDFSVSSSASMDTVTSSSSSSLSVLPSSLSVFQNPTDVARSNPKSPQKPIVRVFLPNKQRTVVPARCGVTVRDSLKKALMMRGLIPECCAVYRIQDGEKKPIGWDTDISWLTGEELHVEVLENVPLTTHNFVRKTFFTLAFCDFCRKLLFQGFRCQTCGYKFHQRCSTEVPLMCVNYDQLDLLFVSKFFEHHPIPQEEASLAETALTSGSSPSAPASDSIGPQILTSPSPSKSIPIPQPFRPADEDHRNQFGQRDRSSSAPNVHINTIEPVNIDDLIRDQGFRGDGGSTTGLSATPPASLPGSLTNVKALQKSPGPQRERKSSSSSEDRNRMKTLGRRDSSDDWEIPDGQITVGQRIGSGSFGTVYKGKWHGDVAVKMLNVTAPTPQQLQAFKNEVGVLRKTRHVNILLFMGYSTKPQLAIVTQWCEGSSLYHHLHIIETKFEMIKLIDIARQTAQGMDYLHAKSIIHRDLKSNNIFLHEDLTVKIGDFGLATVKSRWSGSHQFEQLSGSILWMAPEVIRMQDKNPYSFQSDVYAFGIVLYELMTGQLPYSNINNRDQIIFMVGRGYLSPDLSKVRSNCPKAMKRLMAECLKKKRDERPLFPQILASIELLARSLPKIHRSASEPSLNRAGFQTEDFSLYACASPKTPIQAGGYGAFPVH
Chain of c-Raf (P04049 whole entry): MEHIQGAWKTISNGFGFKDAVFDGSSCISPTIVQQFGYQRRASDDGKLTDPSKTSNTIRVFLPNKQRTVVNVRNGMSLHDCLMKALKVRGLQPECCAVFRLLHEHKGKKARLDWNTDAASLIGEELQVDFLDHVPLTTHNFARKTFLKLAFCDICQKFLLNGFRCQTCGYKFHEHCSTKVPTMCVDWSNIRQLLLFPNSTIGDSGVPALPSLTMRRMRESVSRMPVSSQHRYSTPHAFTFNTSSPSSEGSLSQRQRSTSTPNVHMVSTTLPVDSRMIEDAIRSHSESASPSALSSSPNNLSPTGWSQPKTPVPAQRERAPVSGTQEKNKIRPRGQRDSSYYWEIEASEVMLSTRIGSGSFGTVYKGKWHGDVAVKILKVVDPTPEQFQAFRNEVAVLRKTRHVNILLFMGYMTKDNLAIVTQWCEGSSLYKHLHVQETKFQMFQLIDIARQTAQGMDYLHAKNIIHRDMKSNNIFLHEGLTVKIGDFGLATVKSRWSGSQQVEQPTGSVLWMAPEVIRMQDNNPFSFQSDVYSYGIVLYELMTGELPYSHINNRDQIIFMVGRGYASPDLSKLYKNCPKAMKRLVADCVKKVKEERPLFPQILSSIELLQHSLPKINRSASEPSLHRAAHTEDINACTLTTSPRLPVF

IC50 (c-Raf) [nM]	IC50 (B-Raf) [nM]	Structure (SMILES)
< 100	< 100	COC(=O)Nc1nc2ccc(C3(O)c4ccccc4C(=O)N3c3ccc(Cl)c(Cl)c3F)cc2[nH]1 (stereo not drawn) [Entry 228, methyl {6-[2-(3,4-dichloro-2-fluorophenyl)-1-hydroxy-3-oxo-2,3-dihydro-1H-isoindol-1-yl]-1H-benzimidazol-2-yl}carbamate]
< 100	< 100	CC1(C)OC[C@@H](COC(=O)Nc2nc3cc(C4(O)c5ccccc5C(=O)N4Cc4ccccc4)ccc3[nH]2)O1 (stereo partly drawn) [Entry 229, [(4S)-2,2-dimethyl-1,3-dioxolan-4-yl]methyl {5-[1-hydroxy-3-oxo-2-(phenylmethyl)-2,3-dihydro-1H-isoindol-1-yl]-1H-benzimidazol-2-yl}carbamate]
< 100	< 100	COC(=O)Nc1nc2cc(C3(O)c4ccccc4C(=O)N3c3cc(Br)ccc3F)ccc2[nH]1 (stereo not drawn) [Entry 230, methyl {5-[2-(5-bromo-2-fluorophenyl)-1-hydroxy-3-oxo-2,3-dihydro-1H-isoindol-1-yl]-1H-benzimidazol-2-yl}carbamate]
< 100	< 100	COC(=O)Nc1nc2cc(C3(O)c4ccccc4C(=O)N3c3cccc(NC(C)=O)c3)ccc2[nH]1 (stereo not drawn) [Entry 231, methyl (5-{2-[3-(acetylamino)phenyl]-1-hydroxy-3-oxo-2,3-dihydro-1H-isoindol-1-yl}-1H-benzimidazol-2-yl)carbamate]
< 100	< 100	COC(=O)Nc1nc2cc(C3(O)c4ccccc4C(=O)N3c3cccc(Cc4ccccc4)c3)ccc2[nH]1 (stereo not drawn) [Entry 232, methyl (5-{1-hydroxy-3-oxo-2-[3-(phenylmethyl)phenyl]-2,3-dihydro-1H-isoindol-1-yl}-1H-benzimidazol-2-yl)carbamate]
< 100	< 100	COC(=O)Nc1nc2cc(C3(O)c4ccccc4C(=O)N3C(C)c3cc(Cl)cs3)ccc2[nH]1 (stereo not drawn) [Entry 233, methyl (5-{2-[1-(4-chloro-2-thienyl)ethyl]-1-hydroxy-3-oxo-2,3-dihydro-1H-isoindol-1-yl}-1H-benzimidazol-2-yl)carbamate]
100 to 1000	1000 to 10000	COC(=O)Nc1nc2cc(C3(O)c4ccccc4C(=O)N3c3cccc(C(=O)c4ccccc4)c3)ccc2[nH]1 (stereo not drawn) [Entry 234, methyl (5-{1-hydroxy-3-oxo-2-[3-(phenylcarbonyl)phenyl]-2,3-dihydro-1H-isoindol-1-yl}-1H-benzimidazol-2-yl)carbamate]
100 to 1000	100 to 1000	COC(=O)Nc1nc2cc(C3(O)c4ccccc4C(=O)N3c3cccc(CN(C)C)c3)ccc2[nH]1 (stereo not drawn) [Entry 235, methyl [5-(2-{3-[(dimethylamino)methyl]phenyl}-1-hydroxy-3-oxo-2,3-dihydro-1H-isoindol-1-yl)-1H-benzimidazol-2-yl]carbamate]
100 to 1000	100 to 1000	COC(=O)Nc1nc2cc(C3(O)c4ccccc4C(=O)N3c3cccc(S(N)(=O)=O)c3)ccc2[nH]1 (stereo not drawn) [Entry 236, methyl (5-{2-[3-(aminosulfonyl)phenyl]-1-hydroxy-3-oxo-2,3-dihydro-1H-isoindol-1-yl}-1H-benzimidazol-2-yl)carbamate]
< 100	< 100	COC(=O)Nc1nc2cc(C3(O)c4ccccc4C(=O)N3c3cccc(C(C)=O)c3)ccc2[nH]1 (stereo not drawn) [Entry 237, methyl {5-[2-(3-acetylphenyl)-1-hydroxy-3-oxo-2,3-dihydro-1H-isoindol-1-yl]-1H-benzimidazol-2-yl}carbamate]
< 100	< 100	CCc1cc(N2C(=O)c3ccccc3C2(O)c2ccc3[nH]c(NC(=O)OC)nc3c2)ccc1F (stereo not drawn) [Entry 238, methyl {5-[2-(3-ethyl-4-fluorophenyl)-1-hydroxy-3-oxo-2,3-dihydro-1H-isoindol-1-yl]-1H-benzimidazol-2-yl}carbamate]
< 100	< 100	COC(=O)Nc1nc2cc(C3(O)c4ccccc4C(=O)N3c3cc(F)cc(Cl)c3)ccc2[nH]1 (stereo not drawn) [Entry 239, methyl {5-[2-(3-chloro-5-fluorophenyl)-1-hydroxy-3-oxo-2,3-dihydro-1H-isoindol-1-yl]-1H-benzimidazol-2-yl}carbamate]
100 to 1000	100 to 1000	CC(C)C(=O)Nc1nc2ccc(C3(O)c4ccccc4C(=O)N3Cc3ccccc3)cc2[nH]1 (stereo not drawn) [Entry 240, N-{6-[1-hydroxy-3-oxo-2-(phenylmethyl)-2,3-dihydro-1H-isoindol-1-yl]-1H-benzimidazol-2-yl}-2-methylpropanamide]
1000 to 10000	1000 to 10000	COC(=O)Nc1nc2cc(C3(O)c4ccccc4C(=O)N3C(C)c3sccc3Cl)ccc2[nH]1 (stereo not drawn) [Entry 241, methyl (5-{2-[1-(3-chloro-2-thienyl)ethyl]-1-hydroxy-3-oxo-2,3-dihydro-1H-isoindol-1-yl}-1H-benzimidazol-2-yl)carbamate]
< 100	100 to 1000	COC(=O)Nc1nc2cc(C3(O)c4ccccc4C(=O)N3c3cccnc3)ccc2[nH]1 (stereo not drawn) [Entry 242, methyl [5-(1-hydroxy-3-oxo-2-pyridin-3-yl-2,3-dihydro-1H-isoindol-1-yl)-1H-benzimidazol-2-yl]carbamate]
100 to 1000	100 to 1000	COC(=O)Nc1nc2cc(C3(O)c4ccccc4C(=O)N3c3cccc(Nc4ccccc4)c3)ccc2[nH]1 (stereo not drawn) [Entry 243, methyl (5-{1-hydroxy-3-oxo-2-[3-(phenylamino)phenyl]-2,3-dihydro-1H-isoindol-1-yl}-1H-benzimidazol-2-yl)carbamate]
< 100	< 100	COC(=O)Nc1nc2cc(C3(O)c4ccccc4C(=O)N3c3cc(Br)c(F)cc3F)ccc2[nH]1 (stereo not drawn) [Entry 244, methyl {5-[2-(5-bromo-2,4-difluorophenyl)-1-hydroxy-3-oxo-2,3-dihydro-1H-isoindol-1-yl]-1H-benzimidazol-2-yl}carbamate]
< 100	< 100	COC(=O)Nc1nc2cc(C3(O)c4ccccc4C(=O)N3c3cc(Cl)c(F)cc3F)ccc2[nH]1 (stereo not drawn) [Entry 245, methyl {5-[2-(5-chloro-2,4-difluorophenyl)-1-hydroxy-3-oxo-2,3-dihydro-1H-isoindol-1-yl]-1H-benzimidazol-2-yl}carbamate]
100 to 1000	1000 to 10000	COC(=O)Nc1nc2cc(C3(O)c4ccccc4C(=O)N3c3cc(Cl)c(F)c(Cl)c3)ccc2[nH]1 (stereo not drawn) [Entry 246, methyl {5-[2-(3,5-dichloro-4-fluorophenyl)-1-hydroxy-3-oxo-2,3-dihydro-1H-isoindol-1-yl]-1H-benzimidazol-2-yl}carbamate]
100 to 1000	100 to 1000	COCC(C)(C)COC(=O)Nc1nc2cc(C3(O)c4ccccc4C(=O)N3Cc3ccccc3)ccc2[nH]1 (stereo not drawn) [Entry 247, 2,2-dimethyl-3-(methyloxy)propyl {5-[1-hydroxy-3-oxo-2-(phenylmethyl)-2,3-dihydro-1H-isoindol-1-yl]-1H-benzimidazol-2-yl}carbamate]
100 to 1000	100 to 1000	CC(C)(CO)COC(=O)Nc1nc2cc(C3(O)c4ccccc4C(=O)N3Cc3ccccc3)ccc2[nH]1 (stereo not drawn) [Entry 248, 3-hydroxy-2,2-dimethylpropyl {5-[1-hydroxy-3-oxo-2-(phenylmethyl)-2,3-dihydro-1H-isoindol-1-yl]-1H-benzimidazol-2-yl}carbamate]
